Experimental data taken from US20100285095A1 (priority 2009, published 2010).
Values joined by “and” are separate entries in the source; they are usually repeats but may differ in a detail not shown here. Equal values may be shown once. Read-outs that look alike come from different tables or passages of the source.

Columns and labels:
[1] = system: S. aureus MN 8; assay type: cell-based, Staphylococcus aureus
[2] = physchem; details: 25 °C, water
[3] = % reduction per mM Ca added, Ca 4.0 mM added to shake flask
[4] = % reduction per mM Ca added, higher concentrations, Ca (mM) as in Table 2: chloride 75.6, stearate 98.8, lactate 53.1, citrate malate 22.6, glycerate 39.7, gluconate 38.4, α-D-heptagluconate 38.1
[5] = % reduction per mM Ca added, low concentrations, Ca (mM) as in Table 1: chloride 15.1, stearate 9.9, lactate 8.8, citrate malate 6.8, glycerate 4.0, gluconate 3.8, α-D-heptagluconate 3.8
[6] = reduction of TSST-1 vs. PBS and BHI control, low concentrations, Ca (mM) added to shake flask: calcium chloride 15.1, calcium stearate 9.9 (solid added directly into the media), calcium lactate 8.8, calcium citrate malate 6.8, calcium glycerate 4.0, calcium gluconate 3.8, calcium α-D-heptagluconate 3.8

## O=C(O)C(O)CO (racemic) [calcium glycerate]
[1]; [3]
  % TSST-1 Change (μg/ml/mM) vs. control: 17.0%

## O=C([O-])C(O)CO.O=C([O-])C(O)CO.[Ca+2] [calcium D-glycerate]
[1]; [3]
  % TSST-1 Change (μg/ml/mM) vs. control: 22.9%

## O=C([O-])[C@@H](O)CO.O=C([O-])[C@@H](O)CO.[Ca+2] [calcium L-glycerate]
[1]; [3]
  % TSST-1 Change (μg/ml/mM) vs. control: 15.3%

## [Ca+2].[Cl-].[Cl-] [calcium chloride, reference compound]
[1]; [4]
  % TSST-1 Change (μg/ml/mM) vs. control: 1.1%
[1]; [5]
  % TSST-1 Change (μg/ml/mM) vs. control: 2.5%
[1]; [6]
  % TSST-1 Change (μg/mL) vs. control: 37%

## O=C(O)C(O)CO (stereo not drawn) [calcium glycerate]
[2]
  solubility: 349 mM
[1]; [4]
  % TSST-1 Change (μg/ml/mM) vs. control: 2.5%
[1]; [5]
  % TSST-1 Change (μg/ml/mM) vs. control: 17.0%
[1]; [6]
  % TSST-1 Change (μg/mL) vs. control: 68%

## CC(O)C(=O)[O-].CC(O)C(=O)[O-].[Ca+2] (stereo not drawn) [calcium lactate, reference compound]
[1]; [4]
  % TSST-1 Change (μg/ml/mM) vs. control: 1.7%
[1]; [5]
  % TSST-1 Change (μg/ml/mM) vs. control: 5.6%
[1]; [6]
  % TSST-1 Change (μg/mL) vs. control: 49%

## O=C([O-])C(O)[C@H](O)[C@@H](O)[C@H](O)[C@H](O)CO.O=C([O-])C(O)[C@H](O)[C@@H](O)[C@H](O)[C@H](O)CO.[Ca+2] (stereo partly drawn) [calcium α-D-heptagluconate]
[1]
  % TSST-1 Change (μg/mL) vs. control: 47%
  % TSST-1 Change (μg/ml/mM) vs. control: 12.5% and 2.6%

## calcium citrate malate [reference compound]
[1]; [4]
  % TSST-1 Change (μg/ml/mM) vs. control: 3.9%
[1]; [5]
  % TSST-1 Change (μg/ml/mM) vs. control: 13.1%
[1]; [6]
  % TSST-1 Change (μg/mL) vs. control: 89%

## calcium gluconate
[1]; [4]
  % TSST-1 Change (μg/ml/mM) vs. control: 2.5%
[1]; [5]
  % TSST-1 Change (μg/ml/mM) vs. control: 21.3%
[1]; [6]
  % TSST-1 Change (μg/mL) vs. control: 81%

## calcium stearate [reference compound]
[1]; [4]
  % TSST-1 Change (μg/ml/mM) vs. control: 0.6%
[1]; [5]
  % TSST-1 Change (μg/ml/mM) vs. control: 6.6%
[1]; [6]
  % TSST-1 Change (μg/mL) vs. control: 65%
